Test results: patent publication US20180015144A1, “AGONISTS OF THE NOGO-A S1PR PATHWAY FOR THE TREATMENT OF GLIOBLASTOMA” (UNIVERSITAT ZURICH, priority 2015, published 2018)

What was measured:
[1] = target: sphingosin-1 phosphate (S1P) receptor 2 (S1PR2) (human) (UniProt O95136); test: cell-based or functional assay
[2] = tested on: GBM MVEC; test: Time-lapse imaging of lamellipodia and filopodia retraction on nanopillars, soluble Nogo-A proteins; format: cell-based, human
Method: (§1) For time-lapse- and force generation experiments, Vybrant/Dil (Invitrogen, 1:200)-labeled GBM MVEC (10^4 cells ml^−1) were added onto the nanopillar structures. The imaging process was started 1 h after seeding GBM MVEC on nanopillars. To calculate the traction force exerted by GBM MVEC on the nanopillar surface, the deflection of the nanopillar tip was imaged with confocal microscopy using a Leica confocal microscope SP5 with a63x, oil immersion, NA1.43 objective.
(§2) During image acquisition, GBM MVEC were kept at 37° C. and 10% CO2. Following laser wavelengths were used to acquire images of nanopillar arrays and Di-labeled cells: 488 nm (nanopillar structures) and 546 nm (Dil).
To quantitatively address the acute effects of soluble Nogo-A proteins on GBM MVEC retraction, Dil-labeled endothelial cells on nanopillars coated with 25 μg*ml^−1 human Fibronectin were treated 30 min after cell seeding with soluble Nogo-A Delta 20 and Nogo-A Delta 21 at 1 μM. Single GBM MVEC were then imaged for a total time of 1.5 h, with a scanning ratio of 30 s per frame. The nanopillar displacements were recorded as sequence images when the GBM MVEC applied forces on the nanopillar surface. For each condition, at least three individual GBM MVEC were analyzed. […] Finally, corresponding traction forces were calculated using the formula F=k*x, where k represents the spring constant of the nanopillars, 78.76 nN/μm.

[3] = tested on: GBM MVEC; test: Mean traction forces of adhered cells on nanopillars coated with Nogo-A proteins; format: cell-based, human
Method: as §1, §2
To quantitatively address the effects of coated Nogo-A proteins on adhesion between endothelial cells (GBM MVEC) and nanopillars, nanopillars were coated with Nogo-A Delta 20, Nogo-A Delta 21, or Fibronectin (blank condition).
To calculate the total force applied by endothelial cells (GBM MVEC) on the substrates, the average displacement of 800-5000 nanopillars per single cell was used. Single GBM MVEC were imaged for a total time of 20 min, with a scanning ratio of 30 s per frame. For each condition, at least three individual GBM MVEC were analyzed.
To address the role of Nogo-A receptors, endothelial cells were pre-incubated for 30 min before seeding with the pharmacological blocker of S1PR2 (JTE-013, 10 μM) (Tocris Bioscience), with the pharmacological blocker of S1PR1 and S1PR3 (VPC 23019, 10 μM) (Tocris Bioscience), or with the pharmacological blocker of S1PR1, 3, 4, and 5 (FTY720, 10 μM) (Tocris Bioscience).
(§3) To quantitatively address the acute effects of soluble Nogo-A proteins on GBM MVEC retraction, Dil-labeled endothelial cells on nanopillars coated with 25 μg*ml^−1 human Fibronectin were treated 30 min after cell seeding with soluble Nogo-A Delta 20 and Nogo-A Delta 21 at 1 μM. Single GBM MVEC were then imaged for a total time of 1.5 h, with a scanning ratio of 30 s per frame. The nanopillar displacements were recorded as sequence images when the GBM MVEC applied forces on the nanopillar surface. For each condition, at least three individual GBM MVEC were analyzed. To address the role of Nogo-A receptors, endothelial cells were cultured for 30 min before incubating the cells for another 30 min with the pharmacological blocker of S1PR2 (JTE-013, 10 μM) (Tocris Bioscience), with the pharmacological blocker of S1PR1 and S1PR3 (VPC 23019, 10 μM) (Tocris Bioscience), or with the pharmacological blocker of S1PR1, 3, 4, and 5 (FTY720, 10 μM) (Tocris Bioscience). Then soluble Nogo-A Delta 20 (at 1 μM) or Nogo-A Delta 21 (at 1 μM) was added and lamellipodia and filopodia were imaged for 1h. The displacements (x) of the nanopillar tips induced by whole endothelial cells (for experiments with coated Nogo-A proteins) or by single endothelial filopodia (for experiments with soluble Nogo-A proteins) were measured using the program Diatrack (Powerful Particle Tracking, Semasopht). Finally, corresponding traction forces were calculated using the formula F=k*x, where k represents the spring constant of the nanopillars, 78.76 nN/μm.

[4] = tested on: GBM MVEC filopodia; test: Peak traction forces of filopodia on nanopillars, soluble Nogo-A proteins; format: cell-based, human
Method: as §1, §2, §3

[5] = tested on: GBM MVECs; test: Transwell migration assay (VEGF-A + fibronectin induced); format: cell-based, human; details: for migration potential despite Nogo-A Delta 20 exposure, blocker alone: pre-incubation with blocker 10 μM; for VEGF+FN-induced migration: protein coated on the underside of the insert, different concentrations
Method: For the migration assays, the undersides of 24-well plate inserts (FluoroBlock, BD Falcon) were coated with 0.5 ml PBS containing 10 μg*ml^−1 fibronectin (recombinant human fibronectin, Biopur AG) and different concentrations of Nogo-A Delta 21, Nogo-A Delta 20 and Nogo-66 (R&D Systems) and incubated for 1 h at 37° C. Endothelial cells (GBM MVECs) were starved in migration medium (DMEM+0.25% BSA) 4 h before detachment with accutase (PAA Laboratories). Cells were resuspended in migration medium (1 Mio ml^−1) and labeled with calcein AM (Molecular Probes, 4 μg ml^−1), followed by washing with HBSS and resuspending in migration medium (125,000 cells ml^−1). The coated inserts were washed and the bottom chamber was prepared by adding migration medium with or without human VEGF-A (PeproTech Inc., 10 ng ml^−1). The inserts were then put in an empty 24-well plate (BD Falcon) and calcein AM-labeled endothelial cells (50,000 cells per insert) were added.
The loaded inserts were transferred to the prepared cluster plate and incubated at 37° C., 5% CO2 for 4 h. A cell titration plate was prepared by adding different cell numbers (50,000/25,000/12,500/6,250/3,125/1,563/782 cells per well) in triplicates in 1.2 ml migration medium and incubated in parallel. The fluorescence was measured after 4 h by a cytofluorometer (Tean Infinite Pro 200) and the number of migrated cells was calculated based on the titration curve.
To ask how co-signaling of Nogo-A Delta 20/Nogo-66 coated to the underside of transwell inserts and of its receptors affect cell migration, calcein-AM labeled GBM MVECs were incubated for 1 h with the pharmacological blockers of-the Nogo-A Delta 20 receptor S1PR2 (JTE-013, 1 μM, 10 μM), with the pharmacological blocker of S1PR1 and S1PR3 (VPC 23019, 10 μM) (Tocris Bioscience), and with the competitive inhibitor of the Nogo-66 receptor NgR1 (NEP1-40, 4.6 μg/ml) during calcein-AM labeling. After washing, the cell medium was again supplied with these pharmacological blockers, prior to cell addition in the upper chamber of the transwell insert.

[6] = target: S1PR2 (Homo sapiens, UniProt O95136); details: cited from earlier work
[7] = tested on: other S1P receptors; details: cited from earlier work
[8] = tested on: VEGFR2; test: VEGFR2 phosphorylation at Tyr1175 in HUVECs, immunofluorescent antibody staining; format: cell-based; details: protein 1 μM
Method: (§4) For the different treatment conditions HUVECs were seeded on 8 well dishes (LabTek chamber slides, immunofluorescence) or 6 well dishes (western blot) and left for 2 to 3 days until the culture was confluent. After a 4 h starvation of the cells in EBM-2 medium (Lonza, Switzerland), the cells were treated with Nogo-A Delta 20 (1 μM), Nogo-A Delta 20 (1 μM) and VEGF-A ([…]), Nogo-A Delta 21 (1 μM), Nogo-A Delta 21 (1 μM) and VEGF ([…]), or VEGF-A alone ([…]) in EBM-2 medium, respectively. The cells were either fixed in 4% formaldehyde for 15 min at room temperature or lysed in RIPA buffer. After fixation, HUVECs were stained with anti-phosphoVEGFR2 antibody (pTyr1175, #2478, Cell Signaling), F-actin (phalloidin Alexa Fluor 633, Molecular Probes) and DAPI. The same antibodies were used to detect VEGFR2 and phosphoVEGFR2 in western blot.

[9] = tested on: VEGFR2; test: VEGFR2 phosphorylation at Tyr1175 and total VEGFR2 in HUVECs, western blot; format: cell-based; details: 15 min, protein 1 μM
Method: as §4

[10] = tested on: endothelial tip cells within the glioblastoma; test: Injection by osmotic minipumps in a mouse model of glioblastoma, endothelial tip cell count; format: in vivo; details: 20 days post-injection, versus scrambled Nogo-A Delta 20
Source text: Coronal brain sections (40 μm) of glioblastoma-bearing mice (20 days post-injection, 20D-PI) were perfused with FITC Lectin (green) to visualize perfused blood vessels and stained for Endomucin to visualize blood vessels including endothelial tip cells (red) and the general nuclear marker DAPI (blue). The boxed areas are enlarged in d-f and in g-i. (a-f). Endomucin^+ endothelial tip cells (red, arrows) and FITC Lectin^+ established blood vessel (green) (d-f) are shown within the glioblastoma. Endomucin seems to be specific for blood vessels within the glioblastoma (red) (as compared to Endomucin^− blood vessels in the surrounding normal brain; green). (d,f,g,i) Note the nicely visualized Endomucin^+ endothelial tip cells including filopodial protrusions (red, arrows) (g) within the glioblastoma. (j) Injection of Nogo-A Delta 20 decreases the mean number of endothelial tip cells within the glioblastoma, showing its inhibitory effect on mouse glioblastoma blood vessels.
GL261 glioma cell implantation into adult (two months old) C57BL/6 animals was performed as previously described (Aulwurm et al., Int J Cancer 2006;118, 1728-1735; Biollaz et al., Eur J Immunol 2009;39, 1323-1333j). Briefly, a total of 2×10^4 GL261 cells were inoculated through a borehole placed 1 mm lateral and 2 mm dorsal to the bregma at 3 mm depth using a Hamilton syringe. […]

[11] = pre-incubation with blocker 10 μM, Nogo-A Delta 20 1 μM
[12] = pre-incubation with blocker 10 μM, Nogo-A Delta 20-coated nanopillars

Chain of sphingosin-1 phosphate (S1P) receptor 2 (S1PR2) (human) (O95136 whole entry): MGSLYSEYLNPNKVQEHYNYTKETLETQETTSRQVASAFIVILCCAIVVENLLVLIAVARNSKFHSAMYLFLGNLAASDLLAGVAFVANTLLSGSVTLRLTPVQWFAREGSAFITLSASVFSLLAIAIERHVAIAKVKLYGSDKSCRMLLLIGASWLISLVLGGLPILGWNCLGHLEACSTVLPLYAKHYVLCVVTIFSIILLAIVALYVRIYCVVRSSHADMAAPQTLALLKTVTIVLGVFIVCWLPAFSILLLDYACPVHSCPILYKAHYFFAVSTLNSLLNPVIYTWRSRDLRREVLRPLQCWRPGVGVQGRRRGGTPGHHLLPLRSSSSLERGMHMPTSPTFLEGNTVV
Chain of S1PR2 (O95136 whole entry): as above

With Nogo-A Delta 20 (ligand) the mean traction forces of GBM MVECs on Nogo-A Delta 20-coated nanopillars [1] was 12 nN and the peak traction forces of GBM MVEC filopodia on nanopillars, soluble Nogo-A Delta 20 at 1 µM [1] was 10 nN.

For `Cc1nn(C)c2nc(NNC(=O)Nc3cc(Cl)nc(Cl)c3)cc(C(C)C)c12` [JTE-013], the “effect of blocker on soluble Nogo-A Delta 20-induced retraction of lamellipodia and filopodia” value [2, 11] was “counterbalanced”, the “mean traction forces induced by Nogo-A Delta 20 coating after blocker” value [3, 12] was ~4.1 nN and the “average peak traction forces of Nogo-A Delta 20 treated filopodia after blocker” value [4, 11] was ~4.5 nN. For the same molecule, the “migration potential despite Nogo-A Delta 20 exposure, blocker alone” value [5] was “significantly increases”.

For `Cc1cc(C(=O)Cn2cc(C#N)ccc2=O)c(C)n1Cc1ccccc1` [CYM-5520], the “selectivity for S1PR2” value [6] is given as “highly selective” and the “activation of other S1P receptors” value [7] is given as “do not activate”.

With “NEP1-40: competitive antagonist of Nogo-66, inhibitor of the Nogo-66 receptor NgR1 (RIYKGVIQAIQKSDEGHPFRAYLESEVAISEELVQKYSNS; UniProt Q9NQC3 1055-1094, looked up, fragment)” the “migration potential upon exposure to Nogo-66 coating” value ([5]; pre-incubation with NEP1-40) was “significantly increases”.

In the case of `CCCCCCCCc1cccc(NC(=O)[C@H](N)COP(=O)(O)O)c1` [VPC 23019], the “effect of blocker on mean traction forces induced by Nogo-A Delta 20 coating” value [3, 12] is reported as “did not decrease”, the “effect of blocker on average peak traction forces of Nogo-A Delta 20 treated filopodia” value [4, 11] is reported as “did also decrease” and the “inhibitor effect of Nogo-A Delta 20 on migration, combined blockers” value ([5]; combined pre-incubation of VPC 23019 with JTE-013) is reported as “strong reduction of the inhibitor effect”. For the same molecule, the “migration potential despite Nogo-A Delta 20 exposure, blocker alone” value [5] was “no effect on its own”.

For `CCCCCCCCc1ccc(CCC(N)(CO)CO)cc1` [FTY720], the “effect of blocker on mean traction forces induced by Nogo-A Delta 20 coating” value [3, 12] was “did not decrease” and the “effect of blocker on average peak traction forces of Nogo-A Delta 20 treated filopodia” value [4, 11] was “did also decrease”.

For `Cc1ccc(Sc2ccc(C3SCCS3)cc2[N+](=O)[O-])cc1` [XAX-162], the “selectivity for S1PR2” value [6] is listed as “highly selective” and the “activation of other S1P receptors” value [7] is listed as “do not activate”.

B1: Nogo-66: inhibitory domain of Nogo, 66 aa; human aa 1055-1120 (SEQ ID NO 004), rat aa 1026-1091 (SEQ ID NO 003) (protein)
chain: RIYKGVIQAIQKSDEGHPFRAYLESEVAISEELVQKYSNSALGHVNCTIKELRRLFLVDDLVDSLK
With B1 the “VEGF+FN-induced migration” value [5] was “dose-dependently inhibited”.

B2: Nogo-A Delta 20: Nogo-A specific inhibitory domain, 182 aa; human aa 567-748 (SEQ ID NO 002), rat aa 544-725 (SEQ ID NO 001) (protein, UniProt Q9NQC3 567-748, looked up, fragment)
chain: TGTKIAYETKMDLVQTSEVMQESLYPAAQLCPSFEESEATPSPVLPDIVMEAPLNSAVPSAGASVIQPSSSPLEASSVNYESIKHEPENPPPYEEAMSVSLKKVSGIKEEIKEPENINAALQETEAPYISIACDLIKETKLSAEPAPDFSDYSEMAKVEQPVPDHSELVEDSSPDSEPVDLF
In the case of B2, the “retraction of GBM MVEC lamellipodia and filopodia” value ([2]; soluble protein 1 μM, over 30 min to 1 h) is reported as “retraction”, the “mean traction forces and pillar displacements induced by adhered cells (change)” value ([3]; protein coated on nanopillars) is reported as “reduced” and the “mean traction forces on the underlying nanopillars” value ([3]; protein coated on nanopillars) is reported as ~12 nN. For the same molecule, the “peak traction forces of filopodia on the underlying nanopillars” value ([4]; soluble protein 1 μM) was ~10 nN, the “VEGF+FN-induced migration” value [5] was “dose-dependently inhibited” and the “phosphoVEGFR2 after 30 min” value ([8]; with VEGF-A for 30 min) was “no phosphoVEGFR2 was detectable”. For the same molecule, the “VEGFR2 phosphorylation at Tyr1175 compared to Nogo-A Delta 21 conditions” value ([8]; with VEGF-A, peak after 15 min) was “considerably lower”, the “amount of phosphoVEGFR2 protein” value ([9]; with VEGF-A) was “reduced” and the “total amount of VEGFR2 protein” value ([9]; with VEGF-A) was “reduced”. The “VEGFR2 phosphorylation, protein alone” value ([9]; without VEGF-A) was “did not induce” and the “mean number of endothelial tip cells within the glioblastoma” value [10] was “decreases”.
